The values that follow come from PMC11355249, “In Silico Identification and Molecular Mechanism of Novel Tyrosinase Inhibitory Peptides Derived from Nacre of Pinctada martensii” (Marine Drugs, 2024).

One may read the IC50 as the concentration that inhibits the measured activity by half. Broadly, the Ki is the equilibrium dissociation constant of an inhibitor or competing ligand from its target.

Series [1] deals with T1, tyrosinase (from Mushroom) (Agaricus bisporus, UniProt C7FF04). It is filed as biochemical. The settings on record: read-out: IC50 (mM), tyrosinase activity. As to the method:
(§1) We followed the method of Yu, with a slight modification. L-tyrosine solution (0.5 mg/mL), sample solution, and PBS buffer were sequentially added into the 96-well plate, thoroughly mixed, and then incubated at 37 °C for 10 min, then 20 μL of tyrosinase solution (500 U/mL) was added into each well, followed by immediate placement into the enzyme marker after the reaction at 37 °C for (10 min ± 5 s). The results were analyzed at 475 nm. DPPH and ABTS free-radical-scavenging capacity assays were conducted using kits from Grace Biotechnology Co., Ltd. (Jiangsu, China).

Series [2] addresses T1, tyrosinase (from Mushroom). The series is described as follows: Inhibition kinetics, Lineweaver-Burk double inverse plot and secondary plots. The series is classed as biochemical. The settings on record: read-out: inhibition constant on the free enzyme, Ki; substrate L-tyrosine; peptide 0, 0.3, 0.6, 1.2 mM. From the text: Based on the observation that the inhibition of tyrosinase by the synthetic peptide AHYYD was reversible, the type of inhibition was further elucidated by constructing a Lineweaver–Burk double inverse plot of the enzymatic reaction rate against the concentration of the substrate (L-tyrosine). In this plot, the intercept with the Y-axis represents 1/Vmax, while the intercept with the X-axis represents −1/Km. […] The slope of the line increased with the rise in synthetic peptide concentration, indicating a mixed type of inhibition. By using the quadratic plotting method, the slopes of the four straight lines in the Lineweaver–Burk double inverse plot were plotted against the synthetic peptide concentration.
Keeping the L-tyrosine concentration constant at 0.5 mg/mL, the concentrations of the synthetic peptide and tyrosinase were varied. The change in the OD475 absorbance value was continuously monitored at 37 °C after mixing. The enzyme concentration is plotted on the horizontal axis, while the rate of absorbance change is plotted on the vertical axis. Under the conditions of varying the peptide concentration and substrate concentration while keeping the tyrosinase solution constant, the reciprocal of the substrate concentration was plotted on the horizontal axis, and the reciprocal of the rate of absorbance change was plotted on the vertical ax.

In series [3] the test system is B16F10 cells. The series is described as follows: Cell viability, CCK-8 assay. The settings on record: 15–1200 μM, 48 h. It is filed as cell-based, mouse. As to the method: The B16F10 cells were obtained from FengHui Biotechnology Co., Ltd. (Hunan, China). B16F10 cell cultures from generations 10–25 were grown in medium (DMEM supplemented with 10% fetal bovine serum, 1% antibiotic–antifungal solution) in a 5% CO2 incubator at 37 °C.
Cell viability was assessed using the Cell Counting Kit-8 (CCK-8) assay. During the logarithmic growth phase, 100 µL of cell suspension was dispensed into 96-well plates, with 3000 cells per well, and the supernatant was removed after incubation at 37 °C for 24 h. Wells containing 100 µL of medium served as blank controls. Determination of viability after 48 h of sample treatment.
For orientation: Tetrazolium dyes change colour on reduction, which living cells bring about.

The test system of series [4] is tyrosinase activity in B16F10 cells. Put plainly: Intracellular tyrosinase activity (L-DOPA, 475 nm). The series is classed as cell-based, mouse. The settings on record: B16F10, Kojic acid 350 μM, 48 h. On the procedure: The cells in the logarithmic growth phase were seeded at a density of 2 × 10^5 cells per well in 6-well plates. After 24 h of culture, the supernatant was removed. […] After 48 h of incubation, the cells were lysed, and the cell lysates were centrifuged at 12,000 rpm for 10 min. The reaction mixture consisted of 50 µL of cell lysate supernatant, 50 µL of 1 mg/mL L-DOPA, and 50 µL of PBS buffer. The mixture was incubated at 37 °C for 1 h. The […] formation level was then measured spectrophotometrically at 475 nm. Tyrosinase activity was expressed as a percentage of the blank control.

For series [5], the system named is melanin content of B16F10 cells. The series is described as follows: Melanin content determination. It is filed as cell-based, mouse. The note with it: B16F10, Kojic acid 350 μM, 48 h. As to the method: The cell culture stage for melanin content determination was as follows: the cells were washed twice with PBS buffer after 48 h of peptide treatment. Trypsin digestion was performed, and the cells were collected. The […] was removed by centrifugation for 5 min and the precipitate was lysed by dissolving it in 1 mol/L NaOH containing 10% DMSO for 1 h at 80 °C. Subsequently, the cell lysate was centrifuged at 12,000 rpm for 10 min. A total of 200 µL of the supernatant was transferred to a 96-well plate, and the absorbance was measured at 405 nm. The melanin content was then expressed as a percentage of the control group.

Series [6] relates to B16F10 cells. Put plainly: Antioxidant enzyme activity (CAT, GSH-Px, SOD) by kit. The series is classed as cell-based, mouse. The note with it: B16F10, positive control 350 μM. As to the method:
(§2) The cell culture and treatment methods were the same as those described in Section 3.12. The activities of catalase (CAT), glutathione peroxidase (GSH-Px), and superoxide dismutase (SOD) were determined using the assay kit from Nanjing Jianjian Bioengineering Research Institute (Nanjing, China). The ROS content was determined using the method provided by Biyuntian Bio-Technology Company Limited (Shanghai, China).

Series [7] is described as follows: ABTS free-radical-scavenging capacity assay (kit). The note with it: synthetic peptides. On the procedure:
as §1

The test system of series [8] is B16F10 cells. Put plainly: Intracellular ROS content. It is filed as cell-based, mouse. The note with it: B16F10, 75 μM. As to the method: as §2

Where two headings read alike, the source gives them in different places. Peptide text beside a SMILES is read from it.

T1 sequence (C7FF04 1-392): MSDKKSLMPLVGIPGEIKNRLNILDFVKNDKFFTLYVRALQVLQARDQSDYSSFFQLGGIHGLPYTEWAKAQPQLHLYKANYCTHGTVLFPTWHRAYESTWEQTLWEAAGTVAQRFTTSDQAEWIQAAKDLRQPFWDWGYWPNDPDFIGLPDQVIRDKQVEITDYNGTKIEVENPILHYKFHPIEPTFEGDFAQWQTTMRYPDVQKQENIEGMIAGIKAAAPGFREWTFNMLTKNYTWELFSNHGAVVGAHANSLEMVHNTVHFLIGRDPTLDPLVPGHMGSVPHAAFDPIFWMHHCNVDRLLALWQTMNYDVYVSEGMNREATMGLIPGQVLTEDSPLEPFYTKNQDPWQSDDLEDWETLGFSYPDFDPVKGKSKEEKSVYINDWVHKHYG

With `C[C@H](N)C(=O)N[C@@H](Cc1c[nH]cn1)C(=O)N[C@@H](Cc1ccc(O)cc1)C(=O)N[C@@H](Cc1ccc(O)cc1)C(=O)N[C@@H](CC(=O)O)C(=O)O` [AHYYD, Ala-His-Tyr-Tyr-Asp] (H-AHYYD-OH), the IC50 in series [1] was determined as 2.01 ± 0.088 mM. Also, the Ki in series [2] came out at 601 µM. Besides, in the series with B16F10 cells [3], the “viability of B16F10 cells compared to the control group” value is reported as “no significant difference”.

As for `CC[C@H](C)[C@H](NC(=O)[C@@H]1CCCN1C(=O)[C@@H](N)CCCCN)C(=O)N[C@@H](Cc1c[nH]c2ccccc12)C(=O)N[C@H](C(=O)O)[C@@H](C)O` [KPIWT, Lys-Pro-Ile-Trp-Thr] (H-KPIWT-OH; N-terminus and C-terminus assumed), in series [1] (synthetic peptides, Kojic acid positive control), the IC50 was greater than 10 mM.

Consider `O=c1cc(CO)occ1O` [Kojic acid], for which, in series [4], the “reduction of intracellular tyrosinase activity” value turned out to be 19.51%. In addition, the “reduction of intracellular melanin content” value in series [5] came to 18.54%. Further, in the series on B16F10 cells [6], the “increase of GSH-Px activity” value was determined as 52.85% and the “increase of SOD activity” value is 68.92%.

In the case of `C[C@@H](O)[C@H](N)C(=O)N[C@@H](Cc1ccccc1)C(=O)N[C@@H](CO)C(=O)NCC(=O)N[C@@H](CC(N)=O)C(=O)N[C@@H](Cc1ccc(O)cc1)C(=O)N1CCC[C@H]1C(=O)O` [TFSGNYP, Thr-Phe-Ser-Gly-Asn-Tyr-Pro] (H-TFSGNYP-OH), the IC50 in series [1] is greater than 5 mM. The “IC50 for ABTS clearance” value in series [7] was determined as 278.5 µg/mL.

`CC1=C(/C=C/C(C)=C/C=C/C(C)=C/C(=O)O)C(C)(C)CCC1` [tretinoin]: in the series with B16F10 cells [8], the “intracellular ROS levels, % of the untreated group” value turned out to be 65.44%.
